Target: T1, hTDO2 (Homo sapiens, UniProt P48775)
T1 construct: endogenous in cells; host or cells: A172 human brain glioblastoma cells (ATCC CRL-1620)
Experiment: Cellular assay for TDO2 activity determination in A172 cells
Format: cell-based
Conditions: human glioblastoma A172 cells naturally expressing hTDO2; overnight incubation; kynurenine by absorbance at 480 nm
How it was run: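 A172 glioblastoma cells endogenously expressing hTDO2, 1.25×10^4 cells/well, incubated overnight at 37 °C, 5% CO2 in IMDM with 2% FBS and ten compound concentrations. Supernatant kynurenine measured after TCA treatment and Ehrlich's reagent (4-dimethylaminobenzaldehyde) by absorbance at 480 nm against a kynurenine standard curve, then curve-fitted.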

T1 sequence (P48775 whole entry): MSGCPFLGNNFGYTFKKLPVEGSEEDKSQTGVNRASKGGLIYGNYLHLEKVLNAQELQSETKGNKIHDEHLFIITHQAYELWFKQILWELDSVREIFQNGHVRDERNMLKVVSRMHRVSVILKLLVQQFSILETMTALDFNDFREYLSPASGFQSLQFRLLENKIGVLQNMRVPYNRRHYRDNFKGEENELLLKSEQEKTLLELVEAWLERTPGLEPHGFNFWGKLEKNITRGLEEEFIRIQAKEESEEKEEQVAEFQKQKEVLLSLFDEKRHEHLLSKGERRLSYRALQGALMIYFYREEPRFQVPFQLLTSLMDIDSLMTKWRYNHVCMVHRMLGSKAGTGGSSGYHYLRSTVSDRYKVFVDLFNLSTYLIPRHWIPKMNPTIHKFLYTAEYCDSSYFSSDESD

Compound	IC50 [nM]
NCCN1Cc2cc(-c3c[nH]c4cc(F)ccc34)ccc2S1(=O)=O [Example 31, 2-(2-aminoethyl)-5-(6-fluoro-1H-indol-3-yl)-2,3-dihydrobenzo[d]isothiazole 1,1-dioxide]	221
CN(C)CCN1Cc2cc(-c3c[nH]c4cc(F)ccc34)ccc2S1(=O)=O [Example 32, 2-(2-(dimethylamino)ethyl)-5-(6-fluoro-1H-indol-3-yl)-2,3-dihydrobenzo[d]isothiazole 1,1-dioxide]	230
O=S1(=O)c2ccc(-c3c[nH]c4cc(F)ccc34)cc2CN1CCO [Example 33, 5-(6-fluoro-1H-indol-3-yl)-2-(2-hydroxyethyl)-2,3-dihydrobenzo[d]isothiazole 1,1-dioxide]	89
O=S1(=O)c2ccc(-c3c[nH]c4cc(F)ccc34)cc2CN1C[C@H](O)CO [Example 34, (S)-2-(2,3-dihydroxypropyl)-5-(6-fluoro-1H-indol-3-yl)-2,3-dihydrobenzo[d]isothiazole 1,1-dioxide]	103
O=S1(=O)c2ccc(-c3c[nH]c4cc(F)ccc34)cc2CN1C[C@@H](O)CO [Example 35, (R)-2-(2,3-dihydroxypropyl)-5-(6-fluoro-1H-indol-3-yl)-2,3-dihydrobenzo[d]isothiazole 1,1-dioxide]	119
O=S1(=O)c2ccc(-c3c[nH]c4cc(F)ccc34)cc2CN1C1CCNCC1 [Example 36, 5-(6-fluoro-1H-indol-3-yl)-2-(piperidin-4-yl)-2,3-dihydrobenzo[d]isothiazole 1,1-dioxide]	192
CN1CCC(N2Cc3cc(-c4c[nH]c5cc(F)ccc45)ccc3S2(=O)=O)CC1 [Example 37, 5-(6-fluoro-1H-indol-3-yl)-2-(1-methylpiperidin-4-yl)-2,3-dihydrobenzo[d]isothiazole 1,1-dioxide]	196
O=S1(=O)c2ccc(-c3c[nH]c4cc(F)ccc34)cc2CN1[C@@H]1CCOC1 [Example 38, (R)-5-(6-fluoro-1H-indol-3-yl)-2-(tetrahydrofuran-3-yl)-2,3-dihydrobenzo[d]isothiazole 1,1-dioxide]	380
O=S1(=O)c2ccc(-c3c[nH]c4cc(F)ccc34)cc2CN1[C@H]1CCOC1 [Example 39, (S)-5-(6-fluoro-1H-indol-3-yl)-2-(tetrahydrofuran-3-yl)-2,3-dihydrobenzo[d]isothiazole 1,1-dioxide]	342
O=S1(=O)c2ccc(-c3c[nH]c4cc(F)ccc34)cc2CN1C1CNC1 [Example 40, 2-(azetidin-3-yl)-5-(6-fluoro-1H-indol-3-yl)-2,3-dihydrobenzo[d]isothiazole 1,1-dioxide]	859
CN1CC(N2Cc3cc(-c4c[nH]c5cc(F)ccc45)ccc3S2(=O)=O)C1 [Example 41, 5-(6-fluoro-1H-indol-3-yl)-2-(1-methylazetidin-3-yl)-2,3-dihydrobenzo[d]isothiazole 1,1-dioxide]	433
CNC(=O)CCN1Cc2cc(-c3c[nH]c4cc(F)ccc34)ccc2S1(=O)=O [Example 43, 3-(5-(6-fluoro-1H-indol-3-yl)-1,1-dioxidobenzo[d]isothiazol-2(3H)-yl)-N-methylpropanamide]	136
NC(=O)CCN1Cc2cc(-c3c[nH]c4cc(F)ccc34)ccc2S1(=O)=O [Example 44, 3-(5-(6-fluoro-1H-indol-3-yl)-1,1-dioxidobenzo[d]isothiazol-2(3H)-yl)propanamide]	255
CC1=NS(=O)(=O)c2ccc(-c3c[nH]c4cc(F)ccc34)cc21 [Example 135, 5-(6-fluoro-1H-indol-3-yl)-3-methylbenzo[d]isothiazole 1,1-dioxide]	183
O=S1(=O)NC2(CC2)c2cc(-c3c[nH]c4cc(F)ccc34)ccc21 [Example 136, 5-(6-fluoro-1H-indol-3-yl)-2H-spiro[benzo[d]-isothiazole-3,1′-cyclopropane] 1,1-dioxide]	233
CC1c2cc(-c3c[nH]c4cc(F)ccc34)ccc2S(=O)(=O)N1Cc1ccccn1 (stereo not shown) [Example 149, 5-(6-fluoro-1H-indol-3-yl)-3-methyl-2-(pyridin-2-ylmethyl)-2,3-dihydrobenzo[d]isothiazole 1,1-dioxide]	397

— patent US9873690B2, “3-indol substituted derivatives, pharmaceutical compositions and methods for use” (Pfizer Inc., priority 2015, dated 2018)
